Tests used:
Format in all cases: in vivo
[1] = test system: Cotton Aphid (Aphis gossypii, mixed life stages); assay: Cotton aphid, method a (cotyledon dip); conditions: 120 h, cotyledons dipped, counts after 5 days, read-out: mortality in comparison with untreated controls
Source text: II.1 Cotton Aphid (Aphis gossypii, Mixed Life Stages)
The active compounds were formulated in 50:50 (vol:vol) acetone: water and 100 ppm Kinetica™ (from Helena Chemical Co.) surfactant.
Cotton plants at the cotyledon stage (one plant per pot) were infested by placing a heavily infested leaf from the main colony on top of each cotyledon. The aphids were allowed to transfer to the host plant overnight, and the leaf used to transfer the aphids was removed. The cotyledons were dipped in the test solution and allowed to dry. After 5 days, mortality counts were made.

[2] = test system: Green Peach Aphid (Myzus persicae, mixed life stages); assay: Green peach aphid, method a (leaf dip, pepper plants); conditions: foliar, 120 h, leaves dipped, after 5 days, read-out: mortality in comparison with untreated controls
Source text: II.2 Green Peach Aphid (Myzus persicae, Mixed Life Stages)
The active compounds were formulated in 50:50 (vol:vol) acetone:water and 100 ppm Kinetica™ (from Helena Chemical Co.) surfactant.
Pepper plants in the 2nd leaf-pair stage (variety ‘California Wonder’) were infested with approximately 40 laboratory-reared aphids by placing infested leaf sections on top of the test plants. The leaf sections were removed after 24 hr. The leaves of the intact plants were dipped into gradient solutions of the test compound and allowed to dry. Test plants were maintained under fluorescent light (24 hour photoperiod) at about 25° C. and 20-40% relative humidity. Aphid mortality on the treated plants, relative to mortality on check plants, was determined after 5 days.

[3] = test system: Cowpea Aphid (Aphis craccivora); assay: Cowpea aphid, sprayed potted cowpea plants; conditions: population reduction assessed after 24, 72 and 120 hours, read-out: mortality in comparison with untreated controls
Procedure: II.3 Cowpea Aphid (Aphis craccivora)
The active compounds were formulated in 50:50 (vol:vol) acetone:water. The test solution was prepared at the day of use.
Potted cowpea plants colonized with 100-150 aphids of various stages were sprayed after the pest population had been recorded. Population reduction was assessed after 24, 72, and 120 hours.

[4] = test system: Vetch Aphid (Megoura viciae); assay: Vetch aphid, bean leaf disks in microtiterplates; conditions: foliar, 144 h, test solution 2500 mg/L, leaf disks sprayed, 6 days
Procedure: II.4 Vetch Aphid (Megoura viciae)
The active compounds were formulated in 1:3 (vol:vol) DMSO:water with different concentrations of formulated compounds.
Bean leaf disks were placed into microtiterplates filled with […] and 2.5 ppm OPUS™ (from BASF SE, conazole). The leaf disks were sprayed with 2.5 μl of the test solution and 5 to 8 adult aphids were placed into the microtiterplates which were then closed and kept at 23±1° C. and 50±5% relative humidity under fluorescent light for 6 days. Mortality was assessed on the basis of vital, reproduced aphids. Aphid mortality and fecundity was then visually assessed.

[5] = test system: Green Peach Aphid (Myzus persicae); assay: Green peach aphid through systemic means, artificial diet under membrane; conditions: 72 h, pipetted into aphid diet, 3 days, read-out: mortality in comparison with untreated controls
Source text: II.6 Activity Against Green Peach Aphid (Myzus persicae)
For evaluating control of green peach aphid (Myzus persicae) through systemic means the test unit consisted of 96-well-microtiter plates containing liquid artificial diet under an artificial membrane.
The compounds were formulated using a solution containing 75% v/v water and 25% v/v DMSO. Different concentrations of formulated compounds were pipetted into the aphid diet, using a custom built pipetter, at two replications. After application, 5 to 8 adult aphids were placed on the artificial membrane inside the microtiter plate wells. The aphids were then allowed to suck on the treated aphid diet and incubated at about 23+1° C. and about 50+5% relative humidity for 3 days. Aphid mortality and fecundity was then visually assessed.

O=C(Nc1cccnc1)c1conc1C1CC1 [Example 15, 3-Cyclopropyl-isoxazole-4-carboxylic acid pyridin-3-ylamide]
mortality at 300 ppm [1]: ≥ 90%
mortality at 300 ppm [2]: ≥ 90%
mortality at 300 ppm [3]: ≥ 90%
mortality at 2500 µg/mL [4]: ≥ 90%
mortality at 2500 ppm [5]: 100%

Source: patent publication US9125414B2, “Pyridine derivatives compounds for controlling invertebrate pests” (BASF SE, priority 2009, dated 2015)
